In patent publication US8703821B2, “Dialkyl ether delivery agents” (Emisphere Technologies Inc., priority 2006, dated 2014):

How the values were obtained:
[1] = Insulin oral delivery in rats; assay type: in vivo, rat; conditions: oral gavage to fasted male Sprague-Dawley rats; dosing solution delivery agent 200 mg/ml + human recombinant insulin 0.5 mg/ml
[2] = Heparin (LMWH) oral delivery in rats, plasma LMWH by anti-Factor Xa assay; assay type: in vivo, rat; conditions: male Sprague-Dawley rats, delivery agent 300 mg/kg, LMWH 100 IU/kg, volume 3 ml/kg, 25% aqueous propylene glycol
Protocol: Oral dosing solutions containing delivery agent compound and heparin sodium USP were prepared in 25% aqueous propylene glycol. Either the sodium salt of the delivery agent compound was used or the free acid was converted to the sodium salt with one equivalent of sodium hydroxide. The delivery agent compound and heparin (about 166-182 IU/mg) were mixed by vortex as dry powders. This dry mixture was dissolved in 25% v/v aqueous propylene glycol, vortexed, and placed in a sonicator (about 37° C.). The pH was adjusted to about 7 (6.5-8.5) with aqueous NaOH (2N). The dosing solution was sonicated to produce a clear solution. The final volume was adjusted to about 3.0 ml.
Male Sprague-Dawley rats were fasted for 24 hours and anesthetized with ketamine hydrochloride (88 mg/kg) intramuscularly immediately prior to dosing and again as needed to maintain anesthesia. A dosing group of five animals were administered one of the dosing solutions. An 11 cm Rusch 8 French catheter was adapted to a 1 ml syringe with a pipette tip. […]
Citrated blood samples were collected by cardiac puncture following the administration of ketamine (88 mg/kg), typically at 0.25, 0.5, 1.0 and 1.5 hours after dosing. […] LMWH absorption was verified by an increase in plasma LMWH measured by the anti-Factor Xa assay CHROMOSTRATE™ Heparin anti-Xa assay (available from Organon Teknika Corporation, Durham, N.C.).

SMILES: Cc1ccccc1CCOCC(=O)O [Compound 1, (2-o-Tolyl-ethoxy)-acetic acid]
- % Glucose Cmin (Rat) [1]: −36.5%

SMILES: Cc1ccc(CCOCC(=O)O)cc1 [Compound 2]
- melting point: 50 to 52 °C
- % Glucose Cmin (Rat) [1]: −54.3%

SMILES: Cc1cccc(CCOCC(=O)O)c1 [Compound 3, Sodium (2-m-Tolyl-ethoxy)-acetate]
- % Glucose Cmin (Rat) [1]: −30.1%

SMILES: O=C(O)COCCc1ccc(Cl)cc1 [Compound 4]
- melting point: 51 to 52 °C
- % Glucose Cmin (Rat) [1]: −54.3%

SMILES: O=C(O)COCCc1ccccc1Cl [Compound 5]
- % Glucose Cmin (Rat) [1]: −39.7%

SMILES: O=C(O)COCCc1cccc(Cl)c1 [Compound 6]
- % Glucose Cmin (Rat) [1]: −20.9%

SMILES: O=C(O)COCCc1ccc(F)cc1 [Compound 7]
- melting point: 67 to 68 °C
- % Glucose Cmin (Rat) [1]: −41.9%

SMILES: O=C(O)COCCc1ccccc1F [Compound 8]
- % Glucose Cmin (Rat) [1]: −33.5%

SMILES: O=C(O)COCCc1cccc(F)c1 [Compound 9]
- melting point: 36 to 37 °C
- % Glucose Cmin (Rat) [1]: −29.3%

SMILES: Cc1ccc(COCC(=O)O)cc1 [Compound 10]
- melting point: 44 to 45 °C
- % Glucose Cmin (Rat) [1]: −46.6%

SMILES: Cc1cccc(COCC(=O)O)c1 [Compound 11]
- % Glucose Cmin (Rat) [1]: −23.7%

SMILES: O=C(O)COCc1ccc(Cl)cc1 [Compound 13]
- % Glucose Cmin (Rat) [1]: −45.3%

SMILES: O=C(O)COCc1cccc(Cl)c1 [Compound 14]
- % Glucose Cmin (Rat) [1]: −35.3%

SMILES: O=C(O)COCc1ccccc1Cl [Compound 15]
- % Glucose Cmin (Rat) [1]: −39.9%

SMILES: O=C(O)COCc1ccc(F)cc1 [Compound 16]
- % Glucose Cmin (Rat) [1]: −18.1%

SMILES: O=C(O)COCc1cccc(F)c1 [Compound 17]
- % Glucose Cmin (Rat) [1]: −17.6%

SMILES: O=C(O)COCc1ccccc1F [Compound 18]
- % Glucose Cmin (Rat) [1]: −14.6%

SMILES: Cc1cc(C)c(COCC(=O)O)c(C)c1 [Compound 19, (2,4,6-Trimethyl-benzyloxy)-acetic acid]
- melting point: 81 to 83 °C
- % Glucose Cmin (Rat) [1]: −27.5%

SMILES: Cc1cc(C)c(C)c(COCC(=O)O)c1C [Compound 20]
- melting point: 103 to 105 °C

SMILES: Cc1ccc(C)c(COCC(=O)O)c1 [Compound 21]
- melting point: 74 to 75 °C
- % Glucose Cmin (Rat) [1]: −35.0%

SMILES: Cc1ccc(COCC(=O)O)c(C)c1 [Compound 22]
- melting point: 54 to 56 °C

SMILES: Cc1ccc(COCC(=O)O)cc1Cl [Compound 23]
- melting point: 53 to 54 °C
- % Glucose Cmin (Rat) [1]: −5.5%

SMILES: Cc1ccc(C)c(CCOCC(=O)O)c1 [Compound 24]
- melting point: 42 to 43 °C
- % Glucose Cmin (Rat) [1]: −24.7%

SMILES: Cc1cc(C)cc(CCOCC(=O)O)c1 [Compound 25]
- melting point: 50 to 51 °C
- % Glucose Cmin (Rat) [1]: −4.6%

SMILES: O=C(O)COCCCCc1ccccc1 [Compound 26]
- % Glucose Cmin (Rat) [1]: −21.0%

SMILES: O=C(O)COCCc1ccccc1C(F)(F)F [Compound 27]
- % Glucose Cmin (Rat) [1]: −11.3%

SMILES: COc1ccc(CCCCOCC(=O)O)cc1 [Compound 28]
- % Glucose Cmin (Rat) [1]: −10.6%

SMILES: COc1ccc(CCCOCC(=O)O)cc1 [Compound 29]
- % Glucose Cmin (Rat) [1]: −36.3%

SMILES: Cc1ccc(CCCOCC(=O)O)cc1 [Compound 30]
- % Glucose Cmin (Rat) [1]: −19.5%

SMILES: Cc1ccccc1CCCOCC(=O)O [Compound 31]
- % Glucose Cmin (Rat) [1]: −6.1%

SMILES: O=C(O)COCCCCCc1ccccc1 [Compound 32]
- % Glucose Cmin (Rat) [1]: −15.1%

SMILES: COc1ccc(CCOCC(=O)O)cc1 [Compound 33]
- % Glucose Cmin (Rat) [1]: −9.8%

SMILES: O=C(O)COCCc1ccccc1 [Compound 34]
- % Glucose Cmin (Rat) [1]: −32.2%

SMILES: O=C(O)COCCCc1ccccc1 [Compound 35]
- % Glucose Cmin (Rat) [1]: −26.1%

SMILES: COc1ccccc1CCOCC(=O)O [Compound 36]
- % Glucose Cmin (Rat) [1]: −4.4%

SMILES: O=C(O)COCCc1ccc(F)cc1Cl [Compound 37]
- % Glucose Cmin (Rat) [1]: −30.0%

SMILES: O=C(O)COCCc1ccc(Br)cc1 [Compound 39]
- % Glucose Cmin (Rat) [1]: −31.6%

SMILES: O=C(O)COC1Cc2ccccc2C1 [Compound 40]
- % Glucose Cmin (Rat) [1]: −15.8%

SMILES: O=C(O)COC1CCc2ccccc21 (stereo not drawn) [Compound 41]
- % Glucose Cmin (Rat) [1]: −27.8%

SMILES: O=C(O)COCCCc1ccc(Cl)cc1 [Compound 42]
- % Glucose Cmin (Rat) [1]: −20.4%

SMILES: O=C([O-])CCCCCCCNC(=O)c1ccccc1O.[Na+] [Delivery Agent A, monosodium salt of N-(8-[2-hydroxybenzoyl]-amino)caprylic acid]
- Mean Peak Plasma LMWH Concentration (IU/ml) ± SD [2]: 0.984 IU/ml
